Assay results reported in patent US20240150293A1, “SPIROCYCLOHEXANE DERIVATIVES, PHARMACEUTICAL COMPOSITIONS CONTAINING THEM AND THEIR USES AS ANTI-APOPTOTIC INHIBITORS” (LES LABORATOIRES SERVIER, priority 2021, published 2024).
Like-named read-outs stand apart in the source and are kept apart here.

Key:
[1] = molecular target: Cy5-labelled Mcl1 (amino acids 171-321) C286S protein (UniProtKB Q07820) (Homo sapiens (Human), UniProt Q07820, C286S); assay: Inhibition of Mcl-1 by the fluorescence quenching assay (Example A, Method B); format: binding
How it was run: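 Cy5-labelled Mcl1 171-321 C286S (1 nM) quenched by TQ5WS-labelled PUMA peptide (10, 20 or 400 nM); displacement raises fluorescence (Ex 620/Em 680 nm). Buffer 10 mM HEPES, 150 mM NaCl, 0.05% Tween 20, pH 7.4, 5% DMSO; 2 h at room temperature, 11-point curves, IC50 converted to Ki (cKi/eKi).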

[2] = test system: H929 multiple myeloma tumor line; assay: In vitro cytotoxicity, MTT assay (Example B, Method A); format: cell-based; details: H929 cells, 48 hours exposure, read-out: C50
Method: The cytotoxicity studies were carried out on the H929 multiple myeloma tumor line.
The cells are distributed onto microplates and exposed to the test compounds for 48 hours. The cell viability is then quantified by a colorimetric assay, the Microculture Tetrazolium Assay (Carmichael et al, Cancer Res. 1987, 47, 939-942).
The results are expressed in C50 which means concentration corresponding to […] of effect/inhibition.

Chain of Cy5-labelled Mcl1 (amino acids 171-321) C286S protein (Q07820 171-321 C286S): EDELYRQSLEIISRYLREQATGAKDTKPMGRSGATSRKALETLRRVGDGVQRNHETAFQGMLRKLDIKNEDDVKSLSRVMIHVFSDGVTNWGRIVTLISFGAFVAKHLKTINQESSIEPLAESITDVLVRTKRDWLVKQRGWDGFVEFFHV

Row | Compound | Ki [1] [nM] | Ki ([1]; Ki determined from IC50) [nM] | IC50 ([2]; Homo sapiens, NCI-H929, 48 h) [nM] | IC50 [2] [nM]
1 | C[C@@H](COc1ccnc2c1[C@H](C)CCC2)CC1Cc2c(Cl)c(F)ccc2[C@]12CC[C@@](Nc1cccc(Cl)c1)(C(=O)O)CC2 (single isomer, unassigned) [Example 747] | 0.788 | – | – | 118
2 | C[C@@H](COc1ccnc2ccsc12)C[C@H]1Cc2ccc(F)cc2[C@]12CC[C@@](Nc1cccc(Cl)c1)(C(=O)O)CC2 [Example 735, (1r,2′S,4S)-4-(3-chloroanilino)-6′-fluoro-2′-{(2R)-2-methyl-3-[(thieno[3,2-b]pyridin-7-yl)oxy]propyl}-2′,3′-dihydrospiro[cyclohexane-1,1′-indene]-4-carboxylic acid] | 2.55 | – | 433 | –
3 | O=C(O)[C@]1(Nc2cccc(Cl)c2)CC[C@@]2(CC1)c1ccccc1CN2CCCOc1ccnc2ccsc12 [Example 36, (1s,4s)-4-(3-chloroanilino)-2′-{3-[(thieno[3,2-b]pyridin-7-yl)oxy]propyl}-2′,3′-dihydrospiro[cyclohexane-1,1′-isoindole]-4-carboxylic acid] | – | 749 | 18500 | –
4 | O=C(O)[C@]1(Nc2cccc(Cl)c2)CC[C@@]2(CC1)c1ccccc1C[C@@H]2C[C@H](COc1ccncc1)c1ccccc1 [Example 555, (1r,2′S,4S)-4-(3-chloroanilino)-2′-{(2S)-2-phenyl-3-[(pyridin-4-yl)oxy]propyl}-2′,3′-dihydrospiro[cyclohexane-1,1′-indene]-4-carboxylic acid] | 14.6 | – | 2860 | –
5 | C[C@@H](COc1ccnc2c1[C@H](C)CCC2)CC1=Cc2cc(F)ccc2[C@]12CC[C@@](Nc1cccc(Cl)c1)(C(=O)O)CC2 [Example 767, (1r,4R)-4-(3-chloroanilino)-5′-fluoro-2′-[(2R)-2-methyl-3-{[(5R)-5-methyl-5,6,7,8-tetrahydroquinolin-4-yl]oxy}propyl]spiro[cyclohexane-1,1′-indene]-4-carboxylic acid] | 0.305 | – | 78.8 | –
6 | C[C@@H]1CCCc2nccc(OCC(CC3=Cc4ccccc4[C@]34CC[C@@](Nc3cccc(Cl)c3)(C(=O)O)CC4)C(F)F)c21 (single isomer, unassigned) [Example 516] | 28 | – | – | 3860
7 | C[C@@H]1CCCc2nccc(OCC(CC3=Cc4ccccc4[C@]34CC[C@@](Nc3cccc(Cl)c3)(C(=O)O)CC4)c3ccccn3)c21 (stereo partly drawn) [Example 566, (1r,4R)-4-(3-chloroanilino)-2′-[3-{[(5R)-5-methyl-5,6,7,8-tetrahydroquinolin-4-yl]oxy}-2-(pyridin-2-yl)propyl]spiro[cyclohexane-1,1′-indene]-4-carboxylic acid] | 4.34 | – | 721 | –
8 | C[C@@H](COc1ccnc2c1[C@H](C)CC[C@H]2O)CC1=Cc2cc(F)ccc2[C@]12CC[C@@](Nc1cccc(Cl)c1)(C(=O)O)CC2 [Example 770, (1r,4R)-4-(3-chloroanilino)-5′-fluoro-2′-[(2R)-3-{[(5R,8R)-8-hydroxy-5-methyl-5,6,7,8-tetrahydroquinolin-4-yl]oxy}-2-methylpropyl]spiro[cyclohexane-1,1′-indene]-4-carboxylic acid] | 0.35 | – | 90.6 | –
9 | Cc1cc2c(cc1C)[C@]1(CC[C@@](Nc3cccc(Cl)c3)(C(=O)O)CC1)[C@H](C[C@@H](C)COc1ccnc3ccsc13)C2 [Example 734, (1r,2′R,4R)-4-(3-chloroanilino)-5′,6′-dimethyl-2′-{(2R)-2-methyl-3-[(thieno[3,2-b]pyridin-7-yl)oxy]propyl}-2′,3′-dihydrospiro[cyclohexane-1,1′-indene]-4-carboxylic acid] | 1.98 | – | 194 | –

Further lines, with some results ahead:

Row | Ki [1] [nM] | Ki ([1]; Ki determined from IC50) [nM] | Compound | IC50 ([2]; Homo sapiens, NCI-H929, 48 h) [nM] | IC50 [2] [nM]
10 | 65.6 | – | C[C@@H](COc1ccnc2c1[C@@H](C(F)(F)F)CCC2)C[C@H]1Cc2ccccc2[C@]12CC[C@@](Nc1cccc(Cl)c1)(C(=O)O)CC2 [Example 698, (1r,2′S,4S)-4-(3-chloroanilino)-2′-[(2R)-2-methyl-3-{[(5S)-5-(trifluoromethyl)-5,6,7,8-tetrahydroquinolin-4-yl]oxy}propyl]-2′,3′-dihydrospiro[cyclohexane-1,1′-indene]-4-carboxylic acid] | 5430 | –
11 | 4.29 | – | C[C@@H](COc1ccnc2c1CCC2)C[C@@H]1Cc2ccccc2[C@]12CC[C@@](Nc1cccc(Cl)c1)(C(=O)O)CC2 [Example 598, (1r,2′R,4R)-4-(3-chloroanilino)-2′-{(2R)-3-[(6,7-dihydro-5H-cyclopenta[b]pyridin-4-yl)oxy]-2-methylpropyl}-2′,3′-dihydrospiro[cyclohexane-1,1′-indene]-4-carboxylic acid] | 590 | –
12 | 8 | – | C[C@@H](COc1ccnc2c1CCC2F)C[C@H]1Cc2ccccc2[C@]12CC[C@@](Nc1cccc(Cl)c1)(C(=O)O)CC2 (stereo partly drawn) [Example 603, (1r,2′S,4S)-4-(3-chloroanilino)-2′-{(2R)-3-[(7-fluoro-6,7-dihydro-5H-cyclopenta[b]pyridin-4-yl)oxy]-2-methylpropyl}-2′,3′-dihydrospiro[cyclohexane-1,1′-indene]-4-carboxylic acid] | 1110 | –
13 | 20.3 | – | C[C@@H]1CCCc2nccc(OCC(F)CC3Cc4ccccc4[C@]34CC[C@@](Nc3cccc(Cl)c3)(C(=O)O)CC4)c21 (single isomer, unassigned) [Example 508] | – | 3640
14 | 2.32 | – | CC[C@@H]1CC[C@@H](O)c2nccc(OC[C@H](C)C[C@H]3Cc4ccccc4[C@]34CC[C@@](Nc3cccc(Cl)c3)(C(=O)O)CC4)c21 [Example 679, (1r,2′S,4S)-4-(3-chloroanilino)-2′-[(2R)-3-{[(5R,8R)-5-ethyl-8-hydroxy-5,6,7,8-tetrahydroquinolin-4-yl]oxy}-2-methylpropyl]-2′,3′-dihydrospiro[cyclohexane-1,1′-indene]-4-carboxylic acid] | 199 | –
15 | 0.94 | – | Cc1cccc2c1CC(C[C@@H](C)COc1ccnc3c1[C@H](C)CCC3)[C@]21CC[C@](Nc2cccc(Cl)c2)(C(=O)O)CC1 (single isomer, unassigned) [Example 755] | – | 58.4
16 | 1.39 | – | C[C@@H](COc1ccnc2c1[C@H](C)CC[C@H]2C)C[C@H]1Cc2ccccc2[C@]12CC[C@@](Nc1cccc(Cl)c1)(C(=O)O)CC2 [Example 660, (1r,2′S,4S)-4-(3-chloroanilino)-2′-[(2R)-3-{[(5R,8R)-5,8-dimethyl-5,6,7,8-tetrahydroquinolin-4-yl]oxy}-2-methylpropyl]-2′,3′-dihydrospiro[cyclohexane-1,1′-indene]-4-carboxylic acid] | 62 | –
17 | 12.3 | – | C[C@@H](COc1ccnc2c1CC(C)(C)C2)C[C@H]1Cc2ccccc2[C@]12CC[C@@](Nc1cccc(Cl)c1)(C(=O)O)CC2 [Example 611, (1r,2′S,4S)-4-(3-chloroanilino)-2′-{(2R)-3-[(6,6-dimethyl-6,7-dihydro-5H-cyclopenta[b]pyridin-4-yl)oxy]-2-methylpropyl}-2′,3′-dihydrospiro[cyclohexane-1,1′-indene]-4-carboxylic acid] | 1670 | –
18 | 8.28 | – | CC[C@@H]1CC[C@@H](F)c2nccc(OC[C@H](C)C[C@H]3Cc4ccccc4[C@]34CC[C@@](Nc3cccc(Cl)c3)(C(=O)O)CC4)c21 [Example 697, (1r,2′S,4S)-4-(3-chloroanilino)-2′-[(2R)-3-{[(5R,8R)-5-ethyl-8-fluoro-5,6,7,8-tetrahydroquinolin-4-yl]oxy}-2-methylpropyl]-2′,3′-dihydrospiro[cyclohexane-1,1′-indene]-4-carboxylic acid] | 374 | –
